Source: PubChem BioAssay AID493102 (Broad Institute, 2011)

test system: SK-MEL-5 TRPM1-promoter luciferase reporter, 24 h; experiment: reducers of TRPM1 reporter luminescence, concentration series – cell-based, SK-MEL-5, cherry-picked, set 4, MITF inhibitor project, dose response (AID 493102);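 also: actives lower the luciferase signal so the potency reflects inhibition of reporter expression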

| SMILES | AC50 [µM] |
| --- | --- |
| O=C(/C=C/c1ccc(Cl)c([N+](=O)[O-])c1)c1ccc(O)cc1 | 17.4 |
| Cc1ccc(-c2cc(-c3ccc(C)cc3)[n+](C)o2)cc1 | 8.24 |
| Nc1ccc2c(c1)OC1(CCCC1)O2 | 11.2 |
| C=CCSC(=S)NC1CCS(=O)(=O)C1 (stereo unspecified) | 20.7 |
| CCn1c(/C=C/Nc2ccccc2)[n+](CC)c2cc(Cl)c(Cl)cc21 | 14.5 |
| Cc1ccc(Cn2c(=N)n(CC(=O)c3ccc([N+](=O)[O-])cc3)c3ccccc32)cc1 | 6.42 |
| COc1cccc2sc(N3CCN(C(=O)c4ccc([N+](=O)[O-])o4)CC3)nc12 | 7.03 |
| COc1ccc(/C=N/Nc2cc(C)nc(-n3nc(C)cc3C)n2)c(OC)c1 | 10.4 |
| O=C1NC(=O)N(CCc2ccc(F)cc2)C(=O)/C1=C\C=C\c1ccccc1 | 8.26 |
| Cc1ccc2sc(N(CCCN(C)C)C(=O)c3ccc(S(=O)(=O)N(C)C4CCCCC4)cc3)nc2c1C | 18 |
| Cc1cc(C(=O)Nc2cccc(C(=O)O)c2)oc1C | 4.35 |
| c1ccc(C[n+]2cccc3c4ccccc4ccc32)cc1 | 3.41 |
| Cc1nc(NC(=O)/C=C/c2ccccc2)n[nH]1 | 17.8 |
| CC(=O)Nc1ccc(NC(=O)c2nc(S(=O)(=O)Cc3ccccc3)ncc2Cl)cc1 | 12.8 |
| O=C(NCC1CCCCC1)C1(CC2CC(c3cccc(Br)c3)=NO2)CCNCC1 (stereo unspecified) | 18.1 |
| Cc1ccc(NC(=O)c2ccc([N+](=O)[O-])s2)cc1S(=O)(=O)N1CCOCC1 | 3.78 |
| CCSc1ccccc1C(=O)n1nnc2ccccc21 | 11.8 |
| COCCN(C(=O)CCl)C(C(=O)NC1CCCCC1)c1ccccc1C (stereo unspecified) | 17.8 |
| CN(Cc1ccccc1)C1=CC(=[N+]2CCCCC2)CC(C)(C)C1 | 2.46 |
| N#CC(C#N)=C1C=CC=CN1/C(=C\c1ccco1)C(=O)c1ccc(Br)cc1 | 5.59 |
| O=C(Nc1cccc(S(=O)(=O)N2CCCCC2)c1)c1ccc([N+](=O)[O-])o1 | 11.9 |
| CCOC(=O)c1[nH]cnc1N=Nc1c(O)ccc2ccccc12 | 3.76 |
| CCOc1ccc(/C=C2\SC(=S)N(CCC(=O)O)C2=O)cc1 | 0.577 |

| SMILES | AC50 [µM] |
| --- | --- |
| CN(C)c1cc[n+](CC(=O)c2ccc(-c3ccccc3)cc2)cc1 | 2.6 |
| O=C(Nc1ccc(N2CCN(C(=O)c3ccccc3)CC2)cc1)c1ccc([N+](=O)[O-])o1 | 17.9 |
| CCN(CC)CCNC(=O)c1c(C)n(-c2ccccc2)c2cc(Br)c(OC)cc12 | 12.9 |
| COc1cccc(/C=C2/Sc3ccc(C(=O)NCCN4CCCC4)cc3NC2=O)c1 | 17.9 |
| O=C(/C=C/NNC(=O)c1ccccc1)c1ccc([N+](=O)[O-])cc1 | 9.19 |
| CCC[n+]1c(C)sc2c3c(ccc21)CCCC3 | 9.87 |
| Cc1cc(-n2c(C)cc(C(=O)CCl)c2C)no1 | 5.5 |
| CN1CCN(C2=C(NS(=O)(=O)c3cccs3)C(=O)c3ccccc3C2=O)CC1 | 6.98 |
| COc1ccc(S(=O)(=O)N2CCCCC2)cc1NC(=O)c1ccc([N+](=O)[O-])o1 | 9.14 |
| COc1ccc(C(=O)N/N=C/c2cc(Br)ccc2O)cc1OC | 4.76 |
| C=C1CCC[C@]2(C)C[C@H]3OC(=O)C(CN4CCCCC4CO)[C@H]3CC12 (stereo partly specified) | 11 |
| O=C(NC1CCCCC1)C(c1cccnc1)N(C(=O)CCl)c1cccc(Cl)c1 (stereo unspecified) | 4.16 |
| O=C(Cn1ncc(Cl)c(Cl)c1=O)NC1CCCCC1 | 6.82 |
| O=C1C(Nc2ccccc2)=C(N2CCCCC2)C(=O)c2ccccc21 | 6.67 |
| O=C(Nc1cccc(Cl)c1)Nc1cc(S(=O)(=O)N2CCCCC2)ccc1Cl | 12 |
| COc1ccccc1-c1cc(C(F)(F)F)nc(S(C)(=O)=O)n1 | 6.81 |
| COc1ccc(Cn2c(-c3ccc(C)cc3)c[n+]3ccccc23)cc1 | 2.89 |
| O=C(CCl)N1c2ccccc2CCc2ccccc21 | 5.54 |
| COc1cc(/C=C/C(=O)N2CCC=CC2=O)cc(OC)c1OC | 7.4 |
| CC1CN(C(=O)CCC(=O)NCCCN2CCC(Cc3ccccc3)CC2)c2cc(Cl)ccc2O1 (stereo unspecified) | 16.2 |
| CC(=O)c1ccc(Sc2nnnn2-c2ccccc2)c([N+](=O)[O-])c1 | 7.82 |
| N#C/C(=C(/O)c1ccc([N+](=O)[O-])o1)c1nc2ccccc2[nH]1 | 3.8 |
| O=[N+]([O-])/C=C\c1ccc(N2CCOCC2)cc1 | 13.6 |

| SMILES | AC50 [µM] |
| --- | --- |
| OCC1OC(n2cnc3c(NCc4ccco4)ncnc32)C(O)C1O (stereo unspecified) | 3.88 |
| O=C(C[n+]1cccc2ccccc21)c1ccc([N+](=O)[O-])cc1 | 6.21 |
| CC1CCC(C(C)C)C(OC(=O)C[n+]2cc(-c3ccc(Cl)cc3)n3c2CCCCC3)C1 (stereo unspecified) | 6.97 |
| CC(C)(C)c1ccc(-c2noc(CCC(=O)NCC3CCCO3)n2)cc1 (stereo unspecified) | 0.275 |
| COc1ccccc1NS(=O)(=O)c1cccc(C(=O)N/N=C/c2ccc([N+](=O)[O-])o2)c1 | 4.3 |
| Cc1cc(Br)ccc1NC(=O)CNC(=O)Cn1ncc(Cl)c(Cl)c1=O | 7.47 |
| CC(=NNc1nc2ccccc2o1)c1cc2ccccc2cn1 | 0.175 |
| Cc1ccc(C(=O)N/C(=C\c2ccc(-c3ccccc3[N+](=O)[O-])o2)C(=O)NCCN(C)C)cc1 | 4.87 |
| COc1cc2nc(SCC(=O)NCc3ccco3)n(Cc3ccc(Cl)cc3)c(=O)c2cc1OC | 13.2 |
| O=C(O)c1cccc(NC(=O)c2cccc(NC(=O)C3CCCO3)c2)c1 (stereo unspecified) | 21.2 |
| COc1ccc(C(=O)Nc2ccc(C)cn2)c(OC)c1 | 3.7 |
| NCCCNc1nc(N)c([N+](=O)[O-])c(NC2CCCCC2)n1 | 6.36 |
| Cc1ccc(C(=O)N/C(=C\c2ccc(-c3ccc(Br)cc3)o2)C(=O)NCCCN(C)C)cc1 | 6.84 |
| O=C1c2cc([N+](=O)[O-])cc3cc([N+](=O)[O-])cc(c23)C(=O)N1c1ccccn1 | 7.92 |
| CCN1CCN(c2ccc(Nc3ccnc4ccccc34)cc2)CC1 | 12.3 |
| C#CC(=O)N(c1ccc(OC)c(OC)c1)C(C(=O)NC1CCCC1)c1cccs1 (stereo unspecified) | 3.31 |
| O=C(CCCN1C(=O)S/C(=C\c2ccccc2)C1=O)NNC(=O)c1ccccc1O | 33.9 |
| c1ccc2cc3c(NCCN4CCOCC4)ccnc3cc2c1 | 2.91 |
| CCn1c(/C=C/N(C)c2ccccc2)[n+](CC)c2ccc(Cl)cc21 | 6.86 |
| CCOc1ccc(C(=O)Nc2cccc(C(=O)O)c2C)cc1Cl | 8.56 |
| CCOC(=O)/C=c1/s/c(=C/c2ccc3cc(OC)ccc3c2)c(=O)n1CC(=O)NCC1CCCO1 (stereo unspecified) | 6.79 |
| CCOC(=O)c1ccc2c(c1)n(CC)c(/C=C/N(C)c1ccccc1)[n+]2CC | 3.24 |
| CCC(=O)OCCNc1cc(Sc2nc3ccccc3[nH]2)c2nonc2c1[N+](=O)[O-] | 9.14 |

| SMILES | AC50 [µM] |
| --- | --- |
| O=C(c1ccc([N+](=O)[O-])s1)N1CCCc2ccccc21 | 11.2 |
| Cn1c(SC2=CS(=O)(=O)c3ccccc32)nc2ccccc21 | 6.72 |
| O=C(CCl)N1N=C(c2ccco2)CC1c1cccs1 (stereo unspecified) | 7.84 |
| CCCCCn1c(=O)c(C(=O)Nc2cnccn2)c(O)c2ccccc21 | 5.93 |
| CCCCC[n+]1ccn(C2=C([O-])c3ccccc3C(=O)/C2=N\S(=O)(=O)c2ccccc2)c1 | 5.9 |
| Cc1ccc(/C=N/Nc2ccc(C(=O)O)cc2)s1 | 3.3 |
| O=C(N/N=C/c1ccc([N+](=O)[O-])s1)c1ccccc1 | 2.29 |
| O=C(NCc1cccs1)c1nc2c(nnn2Cc2ccccc2Cl)c(=O)[nH]1 | 6.66 |
| C=CCC(Nc1ccccc1)C12C=CC(O1)C(C(=O)OC)=C2C(=O)OC (stereo unspecified) | 11.7 |
| O=C(N/N=C/c1cc(Cl)ccc1O)c1ccncc1 | 8.98 |
| O=[N+]([O-])c1cc(S(=O)(=O)N2CCCCCC2)ccc1F | 9.53 |
| OC(CNCC(c1ccc(Cl)cc1Cl)c1c[nH]c2ccccc12)c1ccccc1 (stereo unspecified) | 14.7 |
| N#C/C(=C\C=C\c1ccccc1[N+](=O)[O-])C(=O)NC1CCCCC1 | 7.8 |
| Nc1ncnc(Sc2ncccn2)c1[N+](=O)[O-] | 11.7 |
| Cn1cccc1C(=O)NC(=O)COC(=O)c1ccc(S(C)(=O)=O)c([N+](=O)[O-])c1 | 9.23 |
| COC(=O)[C@@H]1C[C@]2(OC(=O)c3ccccc3)C=CC(=O)C[C@@H]2N1C(=O)OCc1ccccc1 | 14 |
| O=C(Nc1nc2cc3c(cc2s1)OCO3)C1=COCCO1 | 3.77 |
| CCN(Cc1ccc(OC)c(F)c1)C(=O)CCl | 3.36 |
| CCN(CC)S(=O)(=O)c1ccc(N2CCCC2)c(NC(=O)c2ccc([N+](=O)[O-])o2)c1 | 3.18 |
| CC(C)C1CC(CCNCc2ccc(N(C)C)cc2)(c2ccccc2)CCO1 (stereo unspecified) | 11.1 |
| CCOC(=O)Cn1c(=NC(=O)c2ccc([N+](=O)[O-])s2)sc2ccccc21 | 3.5 |
| CC(=O)Oc1c(C(=O)c2nnc(C)o2)c(=O)n(Cc2ccccc2)c2ccccc12 | 6.98 |
| COc1ccc(C(=O)NC(=O)Nc2cc(C)ccn2)cc1 | 4.96 |

| SMILES | AC50 [µM] |
| --- | --- |
| COc1ccccc1OCC(=O)N/N=C/C=C/c1ccc([N+](=O)[O-])o1 | 7.39 |
| Nc1c(N(CCC2=CCCCC2)C(=O)COc2ccc([N+](=O)[O-])cc2)c(=O)[nH]c(=O)n1Cc1ccccc1 | 14.2 |
| Cc1ccccc1OCc1n(CC(=O)OC2CC(C)CCC2C(C)C)c2ccccc2[n+]1C (stereo unspecified) | 7.52 |
| Cc1ccc(C(=O)c2cccc(N)c2)cc1C | 3.62 |
| O=C(Nc1ccccc1N1CCOCC1)c1ccc([N+](=O)[O-])s1 | 12.3 |
| O=C(N/N=C\c1cc(Cl)ccc1O)c1ccc(S(=O)(=O)N2CCCCC2)cc1 | 2.81 |
| CC(=O)N(C1CC(C)C(C#N)(C#N)C1(C#N)C#N)N(C)C (stereo unspecified) | 9.24 |
| Cc1ccc(C(=O)c2no[n+]([O-])c2C(=O)c2ccc(C)cc2)cc1 | 16.7 |
| COC(=O)C1=C(C)N(Cc2ccccc2)C(=NCC(C)C)N[C@H]1c1cccc(C(F)(F)F)c1 | 15 |
| [2H]C(CCOS(N)(=O)=O)c1ccc(C(C)(C)C)cc1 (stereo unspecified) | 0.487 |
| CC(C)(C)c1ccc(-c2cc(N)n[nH]2)cc1 | 0.511 |
| Cc1ccc(-n2nnnc2CNC(=O)c2ccc([N+](=O)[O-])o2)cc1C | 9.72 |
| O=C1NC(=S)NC(=O)C1=Cc1cccn1-c1ccc(O)cc1 | 11.4 |
| O=C(/C=C/c1cccc([N+](=O)[O-])c1)n1cnc2ccccc21 | 4.39 |
| Cc1ccc(S(=O)(=O)N2CCCCC2)cc1NC(=O)Cn1ncc(Cl)c(Cl)c1=O | 6.21 |
| Cc1cc(C)cc(N2C(=O)NC(=O)/C(=C\c3cccn3-c3ccccc3)C2=O)c1 | 13.8 |
| O=C(N/N=C\c1ccc([N+](=O)[O-])s1)c1cncc(Br)c1 | 4.34 |
| Cc1ccc(C#CC[N+]2(CC#Cc3ccc(C)cc3)CCCCC2)cc1 | 3.95 |
| Oc1cc(NCCN2CCOCC2)cc2cccnc12 | 25.9 |
